In series [1] the target is T1, σ2R (Rattus norvegicus, UniProt Q5U3Y7).
T1 sequence (Q5U3Y7 1-176): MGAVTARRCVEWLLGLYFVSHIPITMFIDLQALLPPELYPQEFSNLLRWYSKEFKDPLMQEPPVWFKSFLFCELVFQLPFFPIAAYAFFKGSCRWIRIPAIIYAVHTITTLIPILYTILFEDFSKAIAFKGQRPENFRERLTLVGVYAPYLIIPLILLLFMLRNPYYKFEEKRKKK
Briefly: σ2R radioligand binding ([3H]DTG, liver membranes).

In series [2] the target is T2, human recombinant histamine H3R (Homo sapiens, UniProt Q9Y5N1).
T2 construct: expressed in transfected cells
The note with it: mean [CI 95%]; read-out: hH3R Ki; cited from earlier work.

In another series the target is σ1R (Cavia porcellus, UniProt Q60492). Briefly: σ1R radioligand binding ([3H](+)-pentazocine, brain cortex membranes).
In series [3] the target is T3, hH1R (Homo sapiens, UniProt P35367).
T3 construct: SP (signal peptide) (N); expressed in transfected cells
Details: method as in PMID 33261900. The settings on record: cited from earlier work.

The target in the next series is T4, human H3R (Homo sapiens, UniProt Q9Y5N1).
T4 construct: expressed in transfected cells
Details: method as in PMID 33261900. The note with it: antagonist mode; read-out: hH3R Kb; cited from earlier work.

The subject of a further series is female CD1 mice. The series is described as follows: loperamide-induced antinociception, paw pressure struggle response latency. The series is classed as in vivo. The note with it: for functional character at σ1 receptor deduced in vivo: from potentiation of loperamide antinociception and reversal by PRE-084; for effect on loperamide-induced antinociception / effect alone on struggle response latency to mechanical stimulus: mice; for effect on loperamide-induced antinociception: injected paw; for effect alone on struggle response latency to mechanical stimulus: 450 g paw pressure, without loperamide.

A further series deals with T5, hH4R (Homo sapiens, UniProt Q9H3N8).
T5 construct: SP (signal peptide) (N); expressed in transfected cells
Briefly: hH4R radioligand binding ([3H]UR-PI294). The note with it: HEK293T cells; oxalate form. The method, then:
(§1) Compounds (as oxalate salts) were tested in H3R in vitro binding studies, using methods described previously.[47],[48] […] Radioligand binding experiments at the H1R, H2R, and H4R were performed as previously described in Rosier et al.[70] and Bartole et al.[71] with HEK293T-SP-FLAG-hHxR (x = 1, 2, or 4) expressing the respective hHR. […] Data represent mean values ± CI from three independent experiments, each performed in triplicate. The normalized competition binding curves were then fitted with a four-parameter logistic fit yielding IC50 values using Prism 8.4.3 software (GraphPad, SanDiego, CA). The Ki values were estimated from the Cheng–Prusoff equation.[74]

Series [4] has as its target T3, hH1R. Briefly: hH1R radioligand binding ([3H]mepyramine). The settings on record: HEK293T cells; oxalate form. As to the method: as §1
The target in a further series is T6, hH2R (Homo sapiens, UniProt P25021).
T6 construct: SP (signal peptide) (N); expressed in transfected cells
The series is described as follows: hH2R radioligand binding ([3H]UR-DE257). The settings on record: HEK293T cells; oxalate form. As to the method: as §1

For series [5] the following is noted: quoted for comparison of basicity; no reference given; cited from earlier work.
In series [6] the test system is σ2R. The settings on record: read-out: σ2R IC50 (binding); cited from earlier work.
A further series deals with σ2 receptor. The note with it: cited from earlier work.
The target in a further series is σ1 receptor. The note with it: read-out: EC50, functional agonism of σ1 receptor-mediated calcium flux; cited from earlier work.
Where [7] appears, read: exptl Ki σ2, Table 3, given as mean ± spread.
Setting [8] is: σ2R Ki, mean [CI 95%], [3H]DTG with (+)-pentazocine mask.
Where [9] appears, read: exptl Ki σ1, Table 3, given as mean ± spread.
Where [10] appears, read: σ1R Ki, mean [CI 95%], [3H](+)-pentazocine.

“And” between values parts separate entries of the source, which are not always exact repeats. Equal values may be shown once. Read-outs that look alike come from different tables or passages of the source.

Chain of σ1R (Q60492 whole entry): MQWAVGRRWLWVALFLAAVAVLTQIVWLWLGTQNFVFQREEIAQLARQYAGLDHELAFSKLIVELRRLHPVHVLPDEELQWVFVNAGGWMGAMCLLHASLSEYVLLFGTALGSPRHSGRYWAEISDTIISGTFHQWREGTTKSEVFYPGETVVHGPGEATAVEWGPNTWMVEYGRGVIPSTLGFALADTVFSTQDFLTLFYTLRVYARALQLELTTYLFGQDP
T3 sequence (P35367 whole entry): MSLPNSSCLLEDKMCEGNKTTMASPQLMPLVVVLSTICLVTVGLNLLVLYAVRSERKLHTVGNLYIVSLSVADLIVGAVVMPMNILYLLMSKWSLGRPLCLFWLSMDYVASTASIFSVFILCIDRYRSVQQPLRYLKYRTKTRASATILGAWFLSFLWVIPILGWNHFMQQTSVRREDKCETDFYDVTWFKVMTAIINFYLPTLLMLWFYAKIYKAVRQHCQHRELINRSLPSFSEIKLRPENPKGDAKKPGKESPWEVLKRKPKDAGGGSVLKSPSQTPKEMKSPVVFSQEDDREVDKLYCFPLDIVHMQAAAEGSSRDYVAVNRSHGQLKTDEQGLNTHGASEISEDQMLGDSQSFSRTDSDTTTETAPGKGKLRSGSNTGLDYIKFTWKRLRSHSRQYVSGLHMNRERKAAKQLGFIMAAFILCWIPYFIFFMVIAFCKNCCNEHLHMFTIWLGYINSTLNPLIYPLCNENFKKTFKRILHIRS
T2 sequence (Q9Y5N1 whole entry): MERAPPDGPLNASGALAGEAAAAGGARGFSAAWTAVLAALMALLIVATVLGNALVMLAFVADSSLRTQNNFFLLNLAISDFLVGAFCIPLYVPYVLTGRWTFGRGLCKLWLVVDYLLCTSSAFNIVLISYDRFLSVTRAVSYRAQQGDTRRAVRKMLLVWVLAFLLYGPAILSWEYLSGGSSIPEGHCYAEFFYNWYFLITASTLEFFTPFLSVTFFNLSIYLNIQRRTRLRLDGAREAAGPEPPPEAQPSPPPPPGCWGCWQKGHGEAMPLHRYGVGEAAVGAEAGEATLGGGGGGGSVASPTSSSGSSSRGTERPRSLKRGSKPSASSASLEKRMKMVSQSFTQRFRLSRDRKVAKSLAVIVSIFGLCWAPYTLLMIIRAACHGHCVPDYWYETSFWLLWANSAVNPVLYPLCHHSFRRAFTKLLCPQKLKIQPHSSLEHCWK
T4 sequence (Q9Y5N1 whole entry): as above
T5 sequence (Q9H3N8 whole entry): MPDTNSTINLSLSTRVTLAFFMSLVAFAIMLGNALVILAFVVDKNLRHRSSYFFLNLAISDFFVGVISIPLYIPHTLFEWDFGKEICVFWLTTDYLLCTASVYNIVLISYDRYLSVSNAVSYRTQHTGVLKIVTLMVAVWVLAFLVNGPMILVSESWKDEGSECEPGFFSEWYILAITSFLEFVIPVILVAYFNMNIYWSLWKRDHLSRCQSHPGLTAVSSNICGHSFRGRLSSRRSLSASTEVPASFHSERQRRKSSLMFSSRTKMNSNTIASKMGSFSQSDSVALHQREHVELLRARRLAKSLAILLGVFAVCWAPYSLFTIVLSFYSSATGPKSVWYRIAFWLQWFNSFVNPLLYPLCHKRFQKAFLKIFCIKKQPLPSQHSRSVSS
T6 sequence (P25021 whole entry): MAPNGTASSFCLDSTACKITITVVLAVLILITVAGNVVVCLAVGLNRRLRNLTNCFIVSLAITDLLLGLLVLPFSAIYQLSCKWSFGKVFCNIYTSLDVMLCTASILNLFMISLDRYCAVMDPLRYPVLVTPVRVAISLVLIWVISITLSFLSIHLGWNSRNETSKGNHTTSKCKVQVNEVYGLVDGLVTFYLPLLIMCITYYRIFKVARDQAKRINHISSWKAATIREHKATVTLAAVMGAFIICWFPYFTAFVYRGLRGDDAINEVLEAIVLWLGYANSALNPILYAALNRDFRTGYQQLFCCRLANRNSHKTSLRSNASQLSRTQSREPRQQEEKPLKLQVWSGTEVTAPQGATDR

As a reminder, the Ki is a dissociation constant, usually derived from enzyme kinetics or from competition with a known ligand. One may read the Kb as the affinity of an antagonist, worked out from how it opposes an agonist. Regarding `O=C(c1ccc(OCCCN2CCC(c3ccncc3)CC2)cc1)C1CC1` [Compound 5], the inhibition constant Ki at σ2R [1] (setting [7]) was 0.0224 ± 0.00413 µM; on σ2R [1] (setting [8]), 0.022 µM and 0.0224 µM; in series [2], 0.008 µM; on σ1R (setting [9]), 0.00364 ± 0.00074 µM; at σ1R (setting [10]), 0.00364 µM; at hH1R [3], over 10 µM. Moreover, the Kb at human H3R is 0.0188 µM. In the series on female CD1 mice, the “functional character at σ1 receptor deduced in vivo” value is on record as “σ1 receptor antagonists”. Further, in the series on female CD1 mice (ipl 100 μg + loperamide 4 mg/kg sc), the “effect on loperamide-induced antinociception” value is given as “increased the antinociceptive effect of loperamide at the injected paw”. Moreover, the “effect alone on struggle response latency to mechanical stimulus” value in the series with female CD1 mice (ipl 100 μg) is “did not have any effect per se”.

`c1ccc(-c2ccc(OCCCN3CCCCC3)cc2)cc1` [Compound 11]: the Ki at hH4R is over 10 µM; at hH1R [4] it was over 10 µM; at hH2R it was over 100 µM; at σ2R [1] (setting [7]) it was 0.0679 ± 0.00751 µM; on σ2R [1] (setting [8]), 0.068 µM and 0.0679 µM; on σ1R (setting [9]), 0.00441 ± 0.00058 µM. This molecule came in with an inhibitory constant (Ki) at σ1R (setting [10]) of 0.00441 µM. In the series with female CD1 mice, the “functional character at σ1 receptor deduced in vivo” value is “σ1 receptor antagonists”. The “effect on loperamide-induced antinociception” value in the series with female CD1 mice (ipl 50 μg + loperamide 4 mg/kg sc) is given as “increased the antinociceptive effect of loperamide at the injected paw”. In the series on female CD1 mice (ipl 50 μg), the “effect alone on struggle response latency to mechanical stimulus” value was “did not have any effect per se”.

As usually defined, the pKa is the negative logarithm of the acid dissociation constant. Take `CN(C)c1ccncc1` [DMAP]: in [5], the pKa was 9.2.

A word on the IC50: it is the concentration that inhibits the measured activity by half. In general, EC50 refers to the concentration needed to bring the measured effect to its halfway point. Take `Clc1ccc(CCCOCCCN2CCCCC2)cc1` [PIT, Pitolisant]: the 50% inhibitory concentration (IC50) is 0.00855 µM with σ2R [6] and 10 µM on σ2 receptor (read-out: IC50, decrease of haloperidol-induced calcium release (antagonist)). Also, in the series on σ2 receptor, the “agonist activity in σ2 receptor-mediated calcium flux functional assay” value is “did not elicit agonist activity”. At σ1 receptor, the EC50 is 0.402 µM.

The values are drawn from paper PMC8739840, “Structural and Molecular Insight into Piperazine and Piperidine Derivatives as Histamine H3 and Sigma-1 Receptor Antagonists with Promising Antinociceptive Properties” (ACS Chemical Neuroscience, 2021).
